Here are results for four molecules from patent US20250049970A1, “DLL3 TARGETING PEPTIDES AND CONSTRUCTS THEREOF” (MARIANA ONCOLOGY INC., priority 2023, published 2025).

The term Kd denotes the constant that tells how readily two partners part at equilibrium.

For series [1], the system named is CT26.DLL3 cells. The experiment in a line: Cell binding (total uptake) of [177Lu]Lu-labeled peptide, CT26.DLL3 cells. The note with it: 1 h, 37° C. The format is cell-based. Here is the method:
(§1) [^177Lu]LuCl3 was received from venders in HCl solution. For every mCi of [^177Lu]LuCl3 added to the reaction vial (1.5 mL Eppendorf vial), ammonium acetate buffer (0.2 M, pH 4.9, 100 μL, containing 1% w/v ascorbic acid and 6% v/v ethanol) and peptide conjugate (1 nmol; also referred to herein as “chelator-peptides”) was added. The pH of the solution was determined to be approximately 5 by using pH strips. The reaction vial was incubated at 80° C., 700 RPM for 17-20 minutes. A sample from the reaction was analyzed by RP-HPLC using an Agilent Infinity II 1260 HPLC to determine reaction completion and radiochemical purity of [^177Lu]Lu-chelator-peptides. HPLC conditions: Waters XBridge BEH C18 Column, 130A, 3.5 μm, 4.6 mm×250 mm; mobile phase: Solvent A=water (with 0.1% formic acid), solvent B=acetonitrile (with 0.1% formic acid). Gradients: 25-45% B in 10 minutes, 45-65% B in 12 minutes, 65-90% in 6 minutes at a flow rate of 0.5 mL/minutes Required amounts of the product was formulated in 1% PBSA for cell studies.
(§2) The study was conducted using SHP-77, CT26.WT, CT26.DLL3, and HEK293.DLL3 cells (Table 9)
(§3) Adherent cell studies: The cells were cultured in appropriate culture media (20 mL) in tissue culture treated T150 flasks at 37° C. and 5% C02. Adherent cells were detached (60-70% confluent) using 5 mL Versene at 37° C. for 3 minutes. After confirming the viability using countess and count of detached cells using Trypan blue, the cells were centrifuged at 4° C. for 5 minutes (1,000 rpm). The cell pellet obtained was washed once with PBS and resuspended in 1% PBSA to obtain the desired cell concentration (5-25 million cells/mL).
(§4) Cell numbers used for the assay were in the range of 5 million cells/condition-25 million cells/condition.
Total uptake: Cells were incubated with 300 μL (0.8 μCi) of the incubation buffer (containing radiolabeled peptide [^177Lu]Lu-test peptide) for 1 hour at 37° C. (Table 10). Post incubation, the cells were pelleted and washed 2 times using cold PBS+1% BSA. The supernatant and washes were combined and counted together as “unbound fraction” in a gamma counter. The cells were then resuspended in 300 μL of 1% PBS+1% BSA and counted in the gamma counter as “bound fraction”.
(§5) In these Tables, “A” represents % s ≤25; “B” represents 25 <% ≤50; “C” represents % >50.

For series [2], the system named is CT26.DLL3 cells. Briefly: Internalization of [177Lu]Lu-labeled peptide, CT26.DLL3 cells. It is filed as cell-based. The conditions noted are these: 1 h, 37° C. Here is the method:
as §1, §2, §3, §4
Internalization: The resuspended cells in 300 μL of 1% PBSA and counted in the gamma counter as “bound fraction” were collected in 1.5 mL Eppendorf tube and pelleted. The pelleted cells were incubated with 300 μL of 50 mM Glycine pH=2.5 for 3 minutes and then pelleted discarding the supernatant. This process was repeated one more time. The pelleted cells were washed with 300 μL of cold 1% PBSA and then resuspended in 300 μl 0.3M NaOH. This was counted in the gamma counter as “internalized fraction”.
as §5

In series [3] the test system is nude mice bearing SHP-77 tumors. Briefly: Ex vivo biodistribution of radiolabeled peptides (% IA/g) in nude mice bearing SHP-77 tumors. The note with it: [177Lu]Lu labelling, 24 hours post-injection, intravenous. Here is the method: Mice were intravenously injected (via the lateral tail vein) with a bolus dose of the radiolabeled peptides for ex vivo biodistribution studies when tumor volumes were in range of 200-400 mm^3 for xenograft mice and when age of the mice was 5-7 weeks for tumor naïve mice studies. To assess the amount of radionuclide injected into individual mice the syringe was assayed in a dose calibrator before and after injection for [^177Lu]Lu-peptide, then the injected dose was determined from the weight difference and concentration of the radionuclide solution.
Mice were euthanized at pre-determined time points and selected tissues were resected and collected into pre-weighed tubes. The tubes were then reweighed post resection, the difference giving the weight of each tissue. Radioactivity in each tissue was measured using a gamma counter. Counts were decay corrected to the time of injection and percentage of injected activity per gram (% IA/g) was calculated for each tissue based on the injected activity into each individual mouse. Injected activity was converted to counts based on the sensitivity of the gamma counter. The counts in tissue were then converted to the percentage of injected activity and this was divided by the mass of tissue to give % IA/g.

For another series, the target named is T1, DLL3 (Homo sapiens, UniProt Q9NYJ7).
T1 sequence (Q9NYJ7 27-618): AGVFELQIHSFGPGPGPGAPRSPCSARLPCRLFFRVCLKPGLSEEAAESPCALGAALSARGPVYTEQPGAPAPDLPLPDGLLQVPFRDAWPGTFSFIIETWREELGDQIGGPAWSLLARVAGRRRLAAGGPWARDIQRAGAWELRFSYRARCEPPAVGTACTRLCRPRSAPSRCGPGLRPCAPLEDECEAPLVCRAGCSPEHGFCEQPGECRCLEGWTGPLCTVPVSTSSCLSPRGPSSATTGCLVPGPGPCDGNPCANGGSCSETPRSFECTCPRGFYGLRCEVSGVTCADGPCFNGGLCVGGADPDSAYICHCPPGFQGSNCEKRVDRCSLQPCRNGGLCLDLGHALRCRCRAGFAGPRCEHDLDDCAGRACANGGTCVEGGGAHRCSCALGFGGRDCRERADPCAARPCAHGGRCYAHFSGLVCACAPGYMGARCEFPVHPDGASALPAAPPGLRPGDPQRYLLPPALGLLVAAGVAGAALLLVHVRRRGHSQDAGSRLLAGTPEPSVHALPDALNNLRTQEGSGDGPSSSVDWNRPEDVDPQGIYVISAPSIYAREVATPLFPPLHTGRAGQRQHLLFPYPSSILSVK
The experiment in a line: SPR KD, biotinylated human DLL3 on streptavidin chip (Table 8). Details: biotin (biotinylated). An excerpt: Biotinylated target ligand human DLL3 was immobilized on a streptavidin sensor chip. A reference surface was set up for nonspecific binding and refractive index changes. […] Sensorgram curves were fitted with 1:1 binding model, and affinity and kinetic parameters were obtained using Biacore Insight evaluation 4.0. software.

Series [4] addresses T2, DLL3 (target ligand immobilized on a SA sensor chip via streptavidin capture) (Homo sapiens (Human), UniProt Q9NYJ7 27-492, limits assumed).
T2 sequence: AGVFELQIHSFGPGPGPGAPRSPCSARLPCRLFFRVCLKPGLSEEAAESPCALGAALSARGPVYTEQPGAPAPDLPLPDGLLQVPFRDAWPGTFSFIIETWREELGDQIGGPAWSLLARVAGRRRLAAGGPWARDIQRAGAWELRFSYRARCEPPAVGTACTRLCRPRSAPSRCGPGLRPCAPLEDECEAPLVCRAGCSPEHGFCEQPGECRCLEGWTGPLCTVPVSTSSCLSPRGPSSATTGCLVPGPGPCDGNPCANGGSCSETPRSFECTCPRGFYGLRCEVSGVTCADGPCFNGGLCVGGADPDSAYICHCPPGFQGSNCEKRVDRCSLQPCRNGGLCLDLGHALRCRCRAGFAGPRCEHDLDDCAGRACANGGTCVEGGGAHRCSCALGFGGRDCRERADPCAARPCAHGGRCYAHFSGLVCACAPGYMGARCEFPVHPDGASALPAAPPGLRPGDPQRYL
Briefly: SPR, Biacore S200, target ligand on SA chip, 25 C, 1:1 fit. Here is the method: Target ligand was immobilized on a SA sensor chip via streptavidin capture. A reference surface was set up for nonspecific binding and refractive index changes. For analysis of the kinetics of interactions, varying concentrations of peptides were injected at a flow rate of 50 μL/minute using running buffer containing 20 mM phosphate buffer with 2.7 mM KCl, 137 mM NaCl and 0.05% Surfactant P20. Sensorgram curves were fitted with 1:1 binding model, and affinity and kinetic parameters were obtained using either Biacore S200 evaluation software 1.1.1 or Biacore Insight evaluation 4.0.
In general terms: In SPR one partner is held on a chip, and binding of the other changes the refractive index at the surface.

[5] abbreviates: biotinylated human DLL3 on streptavidin sensor chip, 25° C., 1:1 binding model; read-out: SPR KD.

Like-named read-outs stand apart in the source and are kept apart here. *1 amine or outer side, *2 acyl side, *3 side chain or, on linkers, in order; H or OH if unused. Where a SMILES comes first, the peptide text is derived from it. Bridges are numbered along the chain shown (N, C = ends). [ ]: non-standard residue; d: D form. The star is where a group is joined. Ala(piperidin-4-yl) = O=C([C@H](CC1CCN([*:3])CC1)N[*:1])[*:2]; DOTA = O=C(O)CN1CCN(CC(=O)O)CCN(CC(=O)*)CCN(CC(=O)O)CC1; X2 = O=C(Cc1ccc(I)cc1)NCCOCCOCCOCCOCCOCCOCCOCCOCC(=O)*; 2Nal = N[C@@H](Cc1ccc2ccccc2c1)C(=O)O; Chg = N[C@H](C(=O)O)C1CCCCC1; NMeNle = CCCC[C@H](NC)C(=O)O; Tle = CC(C)(C)[C@H](N)C(=O)O; CH2 = C([*:1])[*:2] Bounds are passed on as bounds.

For the molecule `CCCC[C@@H](C(=O)N[C@H]1CSSC[C@@H](C(=O)N[C@@H](Cc2c[nH]c3ccccc23)C(=O)N2CCC[C@H]2C(N)=O)NC(=O)[C@H](CC(=O)O)NC(=O)[C@H](CCCCNC(=O)CN2CCN(CC(=O)O)CCN(CC(=O)O)CCN(CC(=O)O)CC2)NC(=O)[C@H](Cc2ccc3ccccc3c2)NC(=O)[C@H](CC(N)=O)NC(=O)[C@H](CC2CCNCC2)NC1=O)N(C)C(=O)[C@@H](NC(=O)[C@H](Cc1c[nH]c2ccccc12)NC(C)=O)[C@@H](C)O` [compound 300, Ac-W-T-(NMe-Nle)-C(3)-[3-(4-piperidinyl)-Ala]-N-(2Nal)-Lys(DOTA)-D-C(3)-W-P-CONH2] (Ac-WT[NMeNle]C[Ala(piperidin-4-yl)]N[2Nal]K(DOTA)DCWP-NH2; disulfide 4-10), the “% Binding” value with CT26.DLL3 cells [1] is reported as “B (25 <% ≤50)”. In addition, the “% Internalization (out of bound fraction)” value in the series with CT26.DLL3 cells [2] is given as “B (25 <% ≤50)”. Besides, in series [3], the “kidney uptake (% IA/g)” value is “C (“C” represents 0 < % IA/g ≤ 10 in)” and the “tumor uptake (% IA/g)” value is on record as “A (“A” represents 0 < % IA/g ≤ 5 in tumor)”. Also, at DLL3 (setting [5]), the Kd was under 1 nM.
As to `CC(=O)N[C@@H](Cc1c[nH]c2ccccc12)C(=O)N[C@H](C(=O)N[C@H](C(=O)N[C@H]1CSCSC[C@@H](C(=O)N[C@@H](Cc2c[nH]c3ccccc23)C(=O)N2CCC[C@H]2C(=O)N[C@H](CCCCNC(=O)COCCOCCOCCOCCOCCOCCOCCOCCNC(=O)Cc2ccc(I)cc2)C(N)=O)NC(=O)[C@H](CC(=O)O)NC(=O)[C@H](CCCCNC(=O)CN2CCN(CC(=O)O)CCN(CC(=O)O)CCN(CC(=O)O)CC2)NC(=O)[C@H](Cc2ccc3ccccc3c2)NC(=O)[C@H](CC(N)=O)NC(=O)[C@H](CC2CCNCC2)NC1=O)C1CCCCC1)[C@@H](C)O` [compound 417] (Ac-WT[Chg]C[Ala(piperidin-4-yl)]N[2Nal]K(DOTA)DCWP[dK](X2)-NH2; linker 4-10 via CH2), in the series on CT26.DLL3 cells [1], the “% Binding” value is reported as “B (25 <% ≤50)”. For the same molecule, the “% Internalization (out of bound fraction)” value in the series with CT26.DLL3 cells [2] is “B (25 <% ≤50)”. Moreover, in series [3], the “kidney uptake (% IA/g)” value is on record as “D (“D” represents % IA/g > 10 in kidney)” and the “tumor uptake (% IA/g)” value is reported as “B (“B” represents % IA/g > 5 in tumor)”. At DLL3 (read-out: SPR KD; biotinylated human DLL3 on streptavidin sensor chip, 25° C., 1:1 binding model), the Kd is under 1 nM.
`CC(=O)N[C@@H](Cc1c[nH]c2ccccc12)C(=O)N[C@H](C(=O)N[C@H](C(=O)N[C@H]1CSSC[C@@H](C(=O)N[C@@H](Cc2c[nH]c3ccccc23)C(=O)N2CCC[C@H]2C(N)=O)NC(=O)[C@H](CC(=O)O)NC(=O)[C@H](CCCCNC(=O)CN2CCN(CC(=O)O)CCN(CC(=O)O)CCN(CC(=O)O)CC2)NC(=O)[C@H](Cc2ccc3ccccc3c2)NC(=O)[C@H](CC(N)=O)NC(=O)[C@H](CC2CCNCC2)NC1=O)C(C)(C)C)[C@@H](C)O` [compound 301, Ac-W-T-(Tbg)-C(3)-[3-(4-piperidinyl)-Ala]-N-(2Nal)-Lys(DOTA)-D-C(3)-W-P-CONH2] (Ac-WT[Tle]C[Ala(piperidin-4-yl)]N[2Nal]K(DOTA)DCWP-NH2; disulfide 4-10): the “% Binding” value in the series with CT26.DLL3 cells [1] was “B (25 <% ≤50)”. For the same molecule, the “% Internalization (out of bound fraction)” value in the series on CT26.DLL3 cells [2] is listed as “B (25 <% ≤50)”. Besides, in series [3], the “kidney uptake (% IA/g)” value was “C (“C” represents 0 < % IA/g ≤ 10 in)” and the “tumor uptake (% IA/g)” value was “A (“A” represents 0 < % IA/g ≤ 5 in tumor)”. Further, the Kd on DLL3 (setting [5]) is under 1 nM.

B1: SEQ ID NO 75 (peptide)
peptide: Ac-MWVLCEWHECWPG-NH2
modifications: disulfide 5-10
SMILES: CSCC[C@H](NC(C)=O)C(=O)N[C@@H](Cc1c[nH]c2ccccc12)C(=O)N[C@H](C(=O)N[C@@H](CC(C)C)C(=O)N[C@H]1CSSC[C@@H](C(=O)N[C@@H](Cc2c[nH]c3ccccc23)C(=O)N2CCC[C@H]2C(=O)NCC(N)=O)NC(=O)[C@H](CCC(=O)O)NC(=O)[C@H](Cc2c[nH]cn2)NC(=O)[C@H](Cc2c[nH]c3ccccc23)NC(=O)[C@H](CCC(=O)O)NC1=O)C(C)C
For B1, in series [4], binding was characterised by a dissociation constant (Kd) of 57 nM.
